Molecular target: T. cruzi lipoamide dehydrogenase (TcLipDH) (Trypanosoma cruzi, UniProt P90597)
Experiment: Recombinant enzyme kinetics
Type: biochemical

Sequence of T. cruzi lipoamide dehydrogenase (TcLipDH) (P90597 whole entry): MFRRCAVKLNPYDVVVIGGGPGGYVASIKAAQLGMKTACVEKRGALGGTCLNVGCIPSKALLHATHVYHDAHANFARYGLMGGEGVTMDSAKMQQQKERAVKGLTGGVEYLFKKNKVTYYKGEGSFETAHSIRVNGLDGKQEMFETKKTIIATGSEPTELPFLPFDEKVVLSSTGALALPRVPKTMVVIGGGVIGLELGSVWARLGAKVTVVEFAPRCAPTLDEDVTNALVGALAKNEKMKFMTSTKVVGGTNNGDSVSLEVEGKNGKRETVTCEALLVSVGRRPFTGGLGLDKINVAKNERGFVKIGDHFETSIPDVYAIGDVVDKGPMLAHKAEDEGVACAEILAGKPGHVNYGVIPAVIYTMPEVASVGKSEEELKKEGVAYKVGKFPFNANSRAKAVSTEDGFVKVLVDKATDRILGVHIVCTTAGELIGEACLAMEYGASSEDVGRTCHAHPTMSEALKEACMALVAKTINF

O=C1C(c2ccccc2)=C(c2ccccc2)C(=O)c2ccccc21 [DPNQ, 2,3-diphenyl-1,4-naphthoquinone]
Ki: 29 µM

From article PMC2929754 (The Journal of parasitology, 2009)
